Test results taken from US4919932A, “Pharmaceutical formulation for the treatment of bacterial infections” (priority 1986, dated 1990).
≈ marks a conversion by molar mass, not a printed value. Like-named read-outs stand apart in the source and are kept apart here.

What was measured:
[1] = test system: Staph. SG 511; assay: MIC against Staph. SG 511; assay type: cell-based
[2] = test system: Staph. 285; assay: MIC against Staph. 285; assay type: cell-based
[3] = test system: Staph. 503; assay: MIC against Staph. 503; assay type: cell-based
[4] = test system: Kl. aerog. 1082E; assay: MIC against Kl. aerog. 1082E; assay type: cell-based
[5] = test system: Citrob. 82 Cull.; assay: MIC against Citrob. 82 Cull.; assay type: cell-based
[6] = test system: Staph. 789; assay: MIC against Staph. 789; assay type: cell-based; conditions: clinical isolate resistant to the cephalosporin
[7] = test system: Staph. 22130; assay: MIC against Staph. 22130; assay type: cell-based; conditions: clinical isolate resistant to the cephalosporin
[8] = test system: Strept. faecium D; assay: MIC against Strept. faecium D; assay type: cell-based; conditions: Enterococcus faecium, clinical isolate resistant to the cephalosporin
[9] = test system: Ent. cl. M 423; assay: MIC against Ent. cl. M 423; assay type: cell-based; conditions: clinical isolate resistant to the cephalosporin
[10] = test system: Ent. cl. P99; assay: MIC against Ent. cl. P99; assay type: cell-based; conditions: clinical isolate resistant to the cephalosporin
[11] = test system: B. fragilis 312; assay: MIC against B. fragilis 312; assay type: cell-based; conditions: Bacteroides fragilis, anaerobic
[12] = test system: B. fragilis 960; assay: MIC against B. fragilis 960; assay type: cell-based; conditions: Bacteroides fragilis, anaerobic
[13] = test system: B. fragilis 17390; assay: MIC against B. fragilis 17390; assay type: cell-based; conditions: Bacteroides fragilis, anaerobic
[14] = test system: B. fragilis 18125; assay: MIC against B. fragilis 18125; assay type: cell-based; conditions: Bacteroides fragilis, anaerobic
[15] = test system: B. ovatus 103; assay: MIC against B. ovatus 103; assay type: cell-based; conditions: Bacteroides ovatus, anaerobic
[16] = test system: B. vulgatus 1446; assay: MIC against B. vulgatus 1446; assay type: cell-based; conditions: Phocaeicola vulgatus, anaerobic
[17] = test system: B. thetaiotaomicron 123; assay: MIC against B. thetaiotaomicron 123; assay type: cell-based; conditions: Bacteroides thetaiotaomicron, anaerobic
[18] = test system: Sph. varius 5262; assay: MIC against Sph. varius 5262; assay type: cell-based; conditions: Fusobacterium varium, anaerobic
[19] = test system: Cl. tetani 19406; assay: microbe, parasite or virus in culture; assay type: cell-based; conditions: Clostridium tetani
[20] = test system: Strept. D 21777; assay: MIC against Strept. D 21777; assay type: cell-based
[21] = test system: Strept. D 26777; assay: MIC against Strept. D 26777; assay type: cell-based
[22] = test system: Ent. cl. 2240 Cull.; assay: MIC against Ent. cl. 2240 Cull.; assay type: cell-based
[23] = test system: E. coli 2139E; assay: MIC against E. coli 2139E; assay type: cell-based; conditions: Escherichia coli
[24] = test system: Kl. pneu. 1976E; assay: MIC against Kl. pneu. 1976E; assay type: cell-based
[25] = test system: B. distasonis 1366; assay: MIC against B. distasonis 1366; assay type: cell-based; conditions: Parabacteroides distasonis
[26] = test system: Citrob. 2901; assay: MIC against Citrob. 2901
[27] = test system: Ent. cl. M. 447; assay: MIC against Ent. cl. M. 447

Question: With `CO/N=C(\C(=O)N[C@@H]1C(=O)N2C(C(=O)O)=C(COC(C)=O)CS[C@H]12)c1csc(N)n1` [(2)] as the compound, how does the MIC [1] read?
Answer: Its MIC is 2 µg/mL (≈ 4.39 µM).

Question: What about the MIC [2] of the same compound?
Answer: The MIC was 2 µg/mL (≈ 4.39 µM).

Question: What about the MIC [3] of the same compound?
Answer: Its MIC is 2 µg/mL (≈ 4.39 µM).

Question: What about the MIC [4] of the same compound?
Answer: The MIC was 1 µg/mL (≈ 2.2 µM).

Question: And the MIC [5]?
Answer: The MIC was 2 µg/mL (≈ 4.39 µM).

Question: And the MIC [6]?
Answer: Its MIC is 64 µg/mL (≈ 141 µM).

Question: And the MIC [7]?
Answer: Its MIC is 32 µg/mL (≈ 70.3 µM).

Question: What about the MIC [8] of the same compound?
Answer: The MIC was 64 µg/mL (≈ 141 µM).

Question: And the MIC [9]?
Answer: Its MIC is 64 µg/mL (≈ 141 µM).

Question: And the MIC [10]?
Answer: Its MIC is 64 µg/mL (≈ 141 µM).

Question: What about the MIC [11] of the same compound?
Answer: Its MIC is 128 µg/mL (≈ 281 µM).

Question: What about the MIC [12] of the same compound?
Answer: The MIC was 16 µg/mL (≈ 35.1 µM).

Question: What about the MIC [13] of the same compound?
Answer: Its MIC is 8 µg/mL (≈ 17.6 µM).

Question: And the MIC [14]?
Answer: Its MIC is 2 µg/mL (≈ 4.39 µM).

Question: And the MIC [15]?
Answer: The MIC was 64 µg/mL (≈ 141 µM).

Question: What about the MIC [16] of the same compound?
Answer: The MIC was 64 µg/mL (≈ 141 µM).

Question: What about the MIC [17] of the same compound?
Answer: Its MIC is 64 µg/mL (≈ 141 µM).

Question: What about the MIC [18] of the same compound?
Answer: Its MIC is 64 µg/mL (≈ 141 µM).

Question: And the MIC [19]?
Answer: The MIC was 8 µg/mL (≈ 17.6 µM).

Question: And the MIC [20]?
Answer: The MIC was 64 µg/mL (≈ 141 µM).

Question: And the MIC [21]?
Answer: Its MIC is 64 µg/mL (≈ 141 µM).

Question: And the MIC [22]?
Answer: The MIC was 0.062 µg/mL (≈ 0.136 µM).

Question: And the MIC [23]?
Answer: The MIC was 0.031 µg/mL (≈ 0.0681 µM).

Question: And the MIC [24]?
Answer: Its MIC is 0.062 µg/mL (≈ 0.136 µM).

Question: What about the MIC [25]; 1366 of the same compound?
Answer: The MIC was 0.125 µg/mL (≈ 0.274 µM).

Question: And the MIC [26]?
Answer: Its MIC is 64 µg/mL (≈ 141 µM).

Question: And the MIC [27]?
Answer: Its MIC is 64 µg/mL (≈ 141 µM).

Question: For `CC(O)C1C(=O)N2C(C(=O)O)=C(Oc3ccc(C(N)=O)cc3)SC12` (stereo not drawn) [(1), sodium 5R,6S-6-(1R-hydroxyethyl)-3-(4-carbamoyl-phenoxy)-7-oxo-4-thia-1-azabicyclo[3.2.0]hept-2-ene-2-carboxylate], which MIC [1] is on record?
Answer: The MIC was 0.062 µg/mL.

Question: And the MIC [2]?
Answer: Its MIC is 0.062 µg/mL.

Question: And the MIC [3]?
Answer: Its MIC is 0.062 µg/mL.

Question: And the MIC [4]?
Answer: Its MIC is 0.5 µg/mL.

Question: What about the MIC [5] of the same compound?
Answer: The MIC was 1 µg/mL.

Question: What about the MIC [6] of the same compound?
Answer: Its MIC is 4 µg/mL.

Question: And the MIC [7]?
Answer: Its MIC is 2 µg/mL.

Question: And the MIC [8]?
Answer: The MIC was 8 µg/mL.

Question: What about the MIC [9] of the same compound?
Answer: The MIC was 4 µg/mL.

Question: And the MIC [10]?
Answer: The MIC was 2 µg/mL.

Question: And the MIC [11]?
Answer: Its MIC is 0.125 µg/mL.

Question: What about the MIC [12] of the same compound?
Answer: Its MIC is 0.125 µg/mL.

Question: What about the MIC [13] of the same compound?
Answer: Its MIC is 0.25 µg/mL.

Question: And the MIC [14]?
Answer: Its MIC is 0.25 µg/mL.

Question: And the MIC [15]?
Answer: Its MIC is 0.125 µg/mL.

Question: And the MIC [16]?
Answer: Its MIC is 0.125 µg/mL.

Question: What about the MIC [17] of the same compound?
Answer: Its MIC is 0.125 µg/mL.

Question: And the MIC [18]?
Answer: The MIC was 0.25 µg/mL.

Question: What about the MIC [19] of the same compound?
Answer: Its MIC is 0.25 µg/mL.

Question: What about the MIC [20] of the same compound?
Answer: Its MIC is 8 µg/mL.

Question: What about the MIC [21] of the same compound?
Answer: Its MIC is 8 µg/mL.

Question: What about the MIC [22] of the same compound?
Answer: The MIC was 2 µg/mL.

Question: What about the MIC [23] of the same compound?
Answer: The MIC was 1 µg/mL.

Question: What about the MIC [24] of the same compound?
Answer: Its MIC is 1 µg/mL.

Question: What about the MIC ([25]; B. distasonis 1366, read-out: MIC) of the same compound?
Answer: The MIC was 0.25 µg/mL.

Question: What about the MIC [26] of the same compound?
Answer: The MIC was 8 µg/mL.

Question: And the MIC [27]?
Answer: The MIC was 16 µg/mL.
